Source: patent publication US7803793B2, “Heterocyclic derived metalloprotease inhibitors” (Janssen Pharmaceutica NV, priority 2006, dated 2010)
Read-outs that look alike come from different tables or passages of the source.

Tests used:
MMP-2 = molecular target: T1, MMP-2 (Homo sapiens, UniProt P08253); assay: MMP enzymatic assay (Trupoint peptide), MMP-2; type: biochemical
T1 construct: Human MMP-2 full length (aa 1-660)
T1 sequence (P08253 30-660): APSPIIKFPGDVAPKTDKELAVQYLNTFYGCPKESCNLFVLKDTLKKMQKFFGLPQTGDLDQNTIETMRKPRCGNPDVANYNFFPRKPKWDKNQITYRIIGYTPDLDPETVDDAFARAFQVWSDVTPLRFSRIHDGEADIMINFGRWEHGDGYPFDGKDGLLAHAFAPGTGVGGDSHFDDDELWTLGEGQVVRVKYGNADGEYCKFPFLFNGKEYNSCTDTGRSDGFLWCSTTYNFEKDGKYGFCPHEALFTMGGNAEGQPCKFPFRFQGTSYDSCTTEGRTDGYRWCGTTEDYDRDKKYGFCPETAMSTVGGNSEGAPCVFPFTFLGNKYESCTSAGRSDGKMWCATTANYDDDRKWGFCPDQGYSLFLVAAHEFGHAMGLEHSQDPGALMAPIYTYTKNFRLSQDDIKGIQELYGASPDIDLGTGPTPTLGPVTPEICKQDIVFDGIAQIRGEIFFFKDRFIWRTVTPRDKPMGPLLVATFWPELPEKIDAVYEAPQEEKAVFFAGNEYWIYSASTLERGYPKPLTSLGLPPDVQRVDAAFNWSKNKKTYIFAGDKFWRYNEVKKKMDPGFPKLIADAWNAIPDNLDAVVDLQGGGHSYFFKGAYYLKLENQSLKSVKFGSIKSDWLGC
Protocol: [formula] • 1) Prepare appropriate 1×MMP assay buffer from 10× stock. […] Need to prepare a 2.5× concentration stock (2.5 μM) to achieve this concentration in 50 μl. Dilute compound to 2.5 mM in 100% DMSO (a 1:40 dilution), then dilute the 2.5 mM compound to 2.5 μM (1:1000) into 1× assay buffer. Make 1 ml 2.5 μM compound in assay buffer. • 4) Fill the rows B through P of a 384-well plate with assay buffer+0.1% DMSO. • 5) Add 30 ul of the 2.5 μM compound in assay buffer to the top row of the plate, doing each compound in triplicate. The plate setup should be as follows, using GM6001 as plate reference compound:
• 6) Serially dilute 10 μl down the plate to achieve 1:3 dilutions in subsequent wells. After each dilution, change pipette tips to avoid compound carryover. Discard the remaining 10 μl after diluting into the final row. • 7) Prepare enzyme dilutions at 2.5× of final desired concentration (see below). Will need 10 ml enzyme solution per plate. Add enzyme to plate, 20 μl per well. Incubate 1 hr.
• 8) Dilute the 500 μM Trupoint peptide 1:1000 into assay buffer to achieve a 5× working stock of 500 nM. Prepare 5 ml total per plate. Add 10 ul of substrate to each well to achieve a final concentration of 100 nM in well. Also prepare background subtraction wells by adding 10 μl 5× substrate to 40 μl assay buffer per well, typically do ˜32 wells. • 9) Incubate assay at room temperature for 15 min. Read in plate reader.
(§1) Analysis Specifications • Calculate average background value from substrate/assay buffer wells • Subtract this from entire plate • Calculate average of DMSO wells for each enzyme. This is the positive control, 100% value. • For each well, calculate percent of control by dividing well value by the average DMSO value obtained above. • Paste percent of control values into Graphpad Prism 4.0.

MMP-9 = molecular target: T2, MMP-9 (Homo sapiens, UniProt P14780); assay: MMP enzymatic assay (Trupoint peptide), MMP-9; type: biochemical
T2 construct: Human MMP-9 catalytic domain (aa 107-446)
T2 sequence (P14780 107-446): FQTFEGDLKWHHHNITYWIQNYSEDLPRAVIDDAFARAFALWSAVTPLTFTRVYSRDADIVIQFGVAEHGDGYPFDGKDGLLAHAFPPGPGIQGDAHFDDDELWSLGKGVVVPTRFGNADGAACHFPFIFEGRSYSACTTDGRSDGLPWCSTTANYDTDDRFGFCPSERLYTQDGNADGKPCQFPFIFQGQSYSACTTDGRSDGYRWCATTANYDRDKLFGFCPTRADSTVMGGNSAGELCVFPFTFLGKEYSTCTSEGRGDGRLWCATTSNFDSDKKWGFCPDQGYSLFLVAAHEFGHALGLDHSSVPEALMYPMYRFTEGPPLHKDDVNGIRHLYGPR
Protocol: [formula] • 1) Prepare appropriate 1×MMP assay buffer from 10× stock. […] The plate setup should be as follows, using GM6001 as plate reference compound:
• 6) Serially dilute 10 μl down the plate to achieve 1:3 dilutions in subsequent wells. After each dilution, change pipette tips to avoid compound carryover. […] Will need 10 ml enzyme solution per plate. Add enzyme to plate, 20 μl per well. Incubate 1 hr.
Prepare 5 ml total per plate. Add 10 ul of substrate to each well to achieve a final concentration of 100 nM in well. […] Read in plate reader.
as §1

SMILES	IC50 (MMP-2) [nM]	IC50 (MMP-9) [nM]	IC50 (MMP-2; read-out: MMP-2 nM IC50) [nM]
Cc1ccc(C#Cc2ccc(N(Cc3cccn(O)c3=O)S(C)(=O)=O)cc2)cc1 [Compound 55, N-(1-Hydroxy-2-oxo-1,2-dihydro-pyridin-3-ylmethyl)-N-(4-p-tolylethynyl-phenyl)-methanesulfonamide]	> 10000	> 10000	
Cc1ccc(C#Cc2ccc(N(Cc3cccn(O)c3=S)S(C)(=O)=O)cc2)cc1 [Compound 56, N-(1-Hydroxy-2-thioxo-1,2-dihydro-pyridin-3-ylmethyl)-N-(4-p-tolylethynyl-phenyl)-methanesulfonamide]	> 10000	> 10000	
Cc1ccc(S(=O)(=O)Cn2cccc(O)c2=O)cc1 [Compound 60, 3-Hydroxy-1-(toluene-4-sulfonylmethyl)-1H-pyridin-2-one]		1070	468
O=c1c(O)cccn1CS(=O)(=O)c1ccc(Br)cc1 [Compound 65, 1-(4-Bromo-benzenesulfonylmethyl)-3-hydroxy-1H-pyridin-2-one]	> 1000	> 1000	
COc1ccc(-c2ccc(S(=O)(=O)Cn3cccc(O)c3=O)cc2)cc1 [Compound 67, 3-Hydroxy-1-(4′-methoxy-biphenyl-4-sulfonylmethyl)-1H-pyridin-2-one]	> 10000	> 10000	
O=C1C(S(=O)(=O)c2ccc(-c3nc4cc(C(F)(F)F)ccc4[nH]3)cc2)CCCCN1O (centres unmarked) [Compound 74, 1-Hydroxy-3-[4-(5-trifluoromethyl-1H-benzoimidazol-2-yl)-benzenesulfonyl]-azepan-2-one]	> 1000	> 1000	
Cc1ccc2[nH]c(-c3ccc(S(=O)(=O)C4CCCCN(O)C4=O)cc3)nc2c1 (centres unmarked) [Compound 75, 1-Hydroxy-3-[4-(5-methyl-1H-benzoimidazol-2-yl)-benzenesulfonyl]-azepan-2-one]	> 1000	> 1000	
N#Cc1ccc2[nH]c(-c3ccc(S(=O)(=O)C4CCCCN(O)C4=O)cc3)nc2c1 (centres unmarked) [Compound 76, 2-[4-(1-Hydroxy-2-oxo-azepane-3-sulfonyl)-phenyl]-1H-benzimidazole-5-carbonitrile]	> 1000	> 1000	
COc1ccc2[nH]c(-c3ccc(S(=O)(=O)C4CCCCN(O)C4=O)cc3)nc2c1 (centres unmarked) [Compound 77, 1-Hydroxy-3-[4-(5-methoxy-1H-benzoimidazol-2-yl)-benzenesulfonyl]-azepan-2-one]	> 1000	> 1000	
O=C1C(S(=O)(=O)c2ccc(-c3nc4cc(F)ccc4[nH]3)cc2)CCCCN1O (centres unmarked) [Compound 78, 3-[4-(5-Fluoro-1H-benzoimidazol-2-yl)-benzenesulfonyl]-1-hydroxy-azepan-2-one]		846	377
O=C1C(S(=O)(=O)c2ccc(F)cc2)CCCCN1O (centres unmarked) [Compound 79, 3-(4-Fluoro-benzenesulfonyl)-1-hydroxy-azepan-2-one]	> 1000	> 1000	
O=C1C(S(=O)(=O)c2ccc(Br)cc2)CCCCN1O (centres unmarked) [Compound 81, 3-(4-Bromo-benzenesulfonyl)-1-hydroxy-azepan-2-one]	> 1000	> 1000	

These reach a lower IC50 (MMP-9). Values come first.

IC50 (MMP-2) [nM]	IC50 (MMP-9) [nM]	IC50 (MMP-2; read-out: MMP-2 nM IC50) [nM]	SMILES
46.7	743		O=C1[C@H](NS(=O)(=O)c2ccc(Oc3ccc(C(F)(F)F)cc3)cc2)CCCN1O [Compound 58, (R)—N-(1-Hydroxy-2-oxo-piperidin-3-yl)-4-(4-trifluoromethyl-phenoxy)-benzenesulfonamide]
> 1000	668		O=c1c(O)cccn1CS(=O)(=O)c1ccc(Br)s1 [Compound 63, 1-(5-Bromo-thiophene-2-sulfonylmethyl)-3-hydroxy-1H-pyridin-2-one]
	522	185	COc1ccc(-c2ccc(S(=O)(=O)Cn3cccc(O)c3=O)s2)cc1 [Compound 64, 3-Hydroxy-1-[5-(4-methoxy-phenyl)-thiophene-2-sulfonylmethyl]-1H-pyridin-2-one]
1250	406		CN1CCCN(O)C(=O)[C@@H]1CN(c1ccc(Oc2ccc(C(F)(F)F)cc2)cc1)S(C)(=O)=O [Compound 68, (3S)-1-Hydroxy-3-{N-methanesulfonyl-N-[4-(4-trifluoromethylphenoxy)-phenyl]amino}methyl-4-methyl-1,4-diazepan-2-one]
914	317		Cc1ccc(Oc2ccc(N(Cc3cc(-c4ccccc4)cn(O)c3=O)S(C)(=O)=O)cc2)cc1 [Compound 52, N-(1-Hydroxy-2-oxo-5-phenyl-1,2-dihydro-pyridin-3-ylmethyl)-N-(4-p-tolyloxy-phenyl)-methanesulfonamide]
2550	223		Cc1ccc(Oc2ccc(N(C(C)c3cccn(O)c3=O)S(C)(=O)=O)cc2)cc1 (centres unmarked) [Compound 50, N-[1-(1-Hydroxy-2-oxo-1,2-dihydro-pyridin-3-yl)-ethyl]-N-(4-p-tolyloxy-phenyl)-methanesulfonamide]
	87.9	167	COc1ccc(Oc2ccc(S(=O)(=O)C3CCCN(O)C3=O)cc2)cc1 (centres unmarked) [Compound 72, 1-Hydroxy-3-[4-(4-methoxy-phenoxy)-benzenesulfonyl]-piperidin-2-one]
	56.1	84.5	COc1ccc(Oc2ccc(S(=O)(=O)Cn3cccc(O)c3=O)cc2)cc1 [Compound 66, 3-Hydroxy-1-[4-(4-methoxy-phenoxy)-benzenesulfonylmethyl]-1H-pyridin-2-one]
	45.8	16.7	Cc1ccc(Oc2ccc(S(=O)(=O)Cn3cccc(O)c3=O)cc2)cc1 [Compound 61, 3-Hydroxy-1-(4-p-tolyloxy-benzenesulfonylmethyl)-1H-pyridin-2-one]
110	44.4		O=C1C(S(=O)(=O)c2ccc(Oc3ccc(OC(F)(F)F)cc3)cc2)CCCCN1O (centres unmarked) [Compound 71, 1-Hydroxy-3-[4-(4-trifluoromethoxy-phenoxy)-benzenesulfonyl]-azepan-2-one]
241	43.9		Cc1ccc(Oc2ccc(N(Cc3cc(C)cn(O)c3=O)S(C)(=O)=O)cc2)cc1 [Compound 51, N-(1-Hydroxy-5-methyl-2-oxo-1,2-dihydro-pyridin-3-ylmethyl)-N-(4-p-tolyloxy-phenyl)-methanesulfonamide]
	31	95.9	COc1ccc(Oc2ccc(S(=O)(=O)C3CCCCN(O)C3=O)cc2)cc1 (centres unmarked) [Compound 70, 1-Hydroxy-3-[4-(4-methoxy-phenoxy)-benzenesulfonyl]-azepan-2-one]
46.7	30.6		O=C1[C@H](CS(=O)(=O)c2ccc(Oc3ccccc3)cc2)NCCCN1O [Compound 69, (3R)-1-Hydroxy-3-(4-phenoxy)benzenesulfonylmethyl-1,4-diazepan-2-one]
184	14.7		COc1ccc(Oc2ccc(N(Cc3cccn(O)c3=O)S(C)(=O)=O)cc2)cc1 [Compound 53, N-(1-Hydroxy-2-oxo-1,2-dihydro-pyridin-3-ylmethyl)-N-[4-(4-methoxy-phenoxy)-phenyl]-methanesulfonamide]
466	11.1		CS(=O)(=O)N(Cc1cccn(O)c1=O)c1ccc(Oc2ccc(OC(F)(F)F)cc2)cc1 [Compound 54, N-(1-Hydroxy-2-oxo-1,2-dihydro-pyridin-3-ylmethyl)-N-[4-(4-trifluoro-methoxy-phenoxy)-phenyl]-methanesulfonamide]
13.6	4.91		O=c1c(O)cccn1CS(=O)(=O)c1ccc(Oc2ccc(OC(F)(F)F)cc2)cc1 [Compound 62, 3-Hydroxy-1-[4-(4-trifluoromethoxy-phenoxy)-benzenesulfonylmethyl]-1H-pyridin-2-one]
